Experimental data published in patent US20090111801A1, “SUBSTITUTED PYRAZINONE DERIVATIVES FOR USE AS A MEDICINE” (Janssen Pharmaceutica N.V., priority 2006, published 2009).

Tests used:
hα2A receptor = biological target: T1, hα2A receptor (Homo sapiens, UniProt P08913); test: Radioligand binding experiment for α2A-adrenoceptor ([3H]raulwolscine, CHO cell membranes); conditions: [3H]raulwolscine binding; for IC50: read-out: h-α2A pIC50 (converted)
T1 construct: expressed in transfected cells; host or cells: CHO cells, stably transfected; membrane preparation
T1 sequence (P08913 1-465): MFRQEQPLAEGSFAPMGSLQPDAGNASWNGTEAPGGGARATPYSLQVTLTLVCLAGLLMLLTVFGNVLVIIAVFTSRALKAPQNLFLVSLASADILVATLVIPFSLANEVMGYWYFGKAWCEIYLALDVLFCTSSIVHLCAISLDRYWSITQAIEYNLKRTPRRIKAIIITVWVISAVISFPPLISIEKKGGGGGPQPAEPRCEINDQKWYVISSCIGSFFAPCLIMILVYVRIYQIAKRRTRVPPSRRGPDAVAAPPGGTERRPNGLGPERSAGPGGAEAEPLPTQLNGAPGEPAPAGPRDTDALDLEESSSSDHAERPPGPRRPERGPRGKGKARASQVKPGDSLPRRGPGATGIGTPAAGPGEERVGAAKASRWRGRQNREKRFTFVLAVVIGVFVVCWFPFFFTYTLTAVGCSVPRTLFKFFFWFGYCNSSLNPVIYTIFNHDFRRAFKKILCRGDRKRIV
Description: (§1) The interaction of a compound of Formula (I) with α2-adrenoceptor receptors was assessed in in vitro radioligand binding experiments. In general, a low concentration of a radioligand with a high binding affinity for a particular receptor or transporter is incubated with a sample of a tissue preparation enriched in a particular receptor or transporter or with a preparation of cells expressing cloned human receptors in a buffered medium. During the incubation, the radioligand binds to the receptor or transporter. When equilibrium of binding is reached, the receptor bound radioactivity is separated from the non-bound radioactivity, and the receptor- or transporter-bound activity is counted. The interaction of the test compounds with the receptor is assessed in competition binding experiments. Various concentrations of the test compound are added to the incubation mixture containing the receptor- or transporter preparation and the radioligand. The test compound in proportion to its binding affinity and its concentration inhibits binding of the radioligand. The radioligand used for hα2A and hα2C receptor binding was [^3H]-raulwolscine.
(§2) CHO cells, stabile transfected with human adrenergic-α2A and α2C receptor cDNA, were cultured in Dulbecco's Modified Eagle's Medium (DMEM)/Nutrient mixture Ham's F12 (ratio 1:1)(Gibco, Gent-Belgium) supplemented with 10% heat inactivated fetal calf serum (Life Technologies, Merelbeke-Belgium) and antibiotics (100 IU/ml penicillin G, 100 μg/ml streptomycin sulphate, 110 μg/ml pyruvic acid and 100 μg/ml L-glutamine). One day before collection, cells were induced with 5 mM sodiumbutyrate. Upon 80-90% of confluence, cells were scraped in phosphate buffered saline without Ca^2+ and Mg^2+ and collected by centrifugation at 1500×g for 10 minutes. The cells were homogenised in Tris-HCl 50 mM using an Ultraturrax homogenizer and centrifuged for 10 minutes at 23,500×g. The pellet was washed once by resuspension and rehomogenization and the final pellet was resuspended in Tris-HCl, divided in 1 ml aliquots and stored at −70° C.
(§3) Membranes were thawed and re-homogenized in incubation buffer (glycylglycine 25 mM, pH 8.0). […] Filters were rinsed extensively with ice-cold rinsing buffer (Tris-HCl 50 mM pH 7.4). Filter-bound radioactivity was determined by scintillation counting in a Topcount (Packard, Meriden, Conn.) and results were expressed as counts per minute (cpm). Non-specific binding was determined in the presence of 1 μM oxymetazoline for the hα2A receptor and 1 μM spiroxatrine for hα2C receptor.
(§4) Data from assays in the presence of compound were calculated as a percentage of total binding measured in the absence of test compound. Inhibition curves, plotting percent of total binding versus the log value of the concentration of the test compound, were automatically generated, and sigmoidal inhibition curves were fitted using non-linear regression. The pIC50 values of test compounds were derived from individual curves.

hα2C receptor = biological target: T2, hα2C receptor (Homo sapiens, UniProt P18825); test: Radioligand binding experiment for α2C-adrenoceptor ([3H]raulwolscine, CHO cell membranes); conditions: [3H]raulwolscine binding; for IC50: read-out: h-α2C pIC50 (converted)
T2 construct: expressed in transfected cells; host or cells: CHO cells, stably transfected; membrane preparation
T2 sequence (P18825 1-462): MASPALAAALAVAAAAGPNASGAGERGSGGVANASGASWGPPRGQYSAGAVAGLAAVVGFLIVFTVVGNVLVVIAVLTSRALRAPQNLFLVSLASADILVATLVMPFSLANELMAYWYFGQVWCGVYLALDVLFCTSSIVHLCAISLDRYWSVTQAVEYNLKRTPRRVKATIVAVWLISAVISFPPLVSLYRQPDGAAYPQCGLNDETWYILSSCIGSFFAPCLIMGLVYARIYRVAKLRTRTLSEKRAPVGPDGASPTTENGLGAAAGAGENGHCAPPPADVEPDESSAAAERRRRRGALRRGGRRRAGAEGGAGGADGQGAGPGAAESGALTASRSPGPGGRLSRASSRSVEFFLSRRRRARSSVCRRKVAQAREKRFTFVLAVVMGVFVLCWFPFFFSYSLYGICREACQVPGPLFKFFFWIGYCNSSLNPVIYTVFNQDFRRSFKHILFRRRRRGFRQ
Description: as §1, §2, §3, §4

5HT-Transporter = biological target: T3, 5HT-Transporter (Homo sapiens, UniProt P31645); test: Binding experiment for the 5HT-transporter ([3H]paroxetine, human platelet membranes); conditions: [3H]paroxetine 0.5 nM; for IC50: read-out: h-5HTT pIC50 (converted)
T3 construct: Human platelet membranes (Oceanix Biosciences Corporation, Hanover, Md., USA) were thawed; tissue Oceanix Biosciences Corporation, Hanover, Md., USA; host or cells: human platelet membranes
T3 sequence (P31645 whole entry): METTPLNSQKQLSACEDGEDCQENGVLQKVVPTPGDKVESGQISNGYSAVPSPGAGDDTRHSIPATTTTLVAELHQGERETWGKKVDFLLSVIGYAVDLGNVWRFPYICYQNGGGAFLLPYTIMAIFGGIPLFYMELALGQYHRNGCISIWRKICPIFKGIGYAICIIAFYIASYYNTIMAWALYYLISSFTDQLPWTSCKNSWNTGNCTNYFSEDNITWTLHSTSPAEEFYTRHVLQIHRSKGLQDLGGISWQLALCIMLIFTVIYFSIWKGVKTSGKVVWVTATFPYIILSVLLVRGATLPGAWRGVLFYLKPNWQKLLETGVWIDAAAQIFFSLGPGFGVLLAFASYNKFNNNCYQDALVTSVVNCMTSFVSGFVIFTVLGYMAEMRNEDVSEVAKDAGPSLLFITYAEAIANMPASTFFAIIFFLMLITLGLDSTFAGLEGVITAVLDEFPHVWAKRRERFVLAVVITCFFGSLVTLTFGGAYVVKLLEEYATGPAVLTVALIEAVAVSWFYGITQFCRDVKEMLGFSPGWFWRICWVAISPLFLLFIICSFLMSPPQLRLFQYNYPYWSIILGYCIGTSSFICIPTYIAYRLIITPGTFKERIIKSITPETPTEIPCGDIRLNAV
Description: as §1
Human platelet membranes (Oceanix Biosciences Corporation, Hanover, Md., USA) were thawed, diluted in buffer (Tris-HCl 50 mM, 120 mM NaCl and 5 mM KCl) and quickly (max 3 s) homogenised with an Ultraturrax homogenizer. […] Incubation was stopped by rapid filtration of the incubation mixture over GF/B filters, pre-wetted with 0.1% polyethyleneamine, using a Filtermate196 harvester (Packard, Meriden, Conn.). Filters were rinsed extensively with ice-cold buffer and radioactivity on the filters was counted in a Topcount liquid scintillation counter (Packard, Meriden, Conn.). Data were expressed as cpm. Imipramine (at 1 μM final concentration) was used to determine the non-specific binding.
as §4

Row | IC50 (hα2A receptor) | IC50 (hα2C receptor) | IC50 (5HT-Transporter) | h-α2A pIC50 (hα2A receptor) | h-α2C pIC50 (hα2C receptor) | h-5HTT pIC50 (5HT-Transporter) | SMILES
1 | 79.4 nM | 25.1 nM | 398 nM | – | – | – | C/C(=C\c1ccccc1)CN1CCC(Nc2nccn(Cc3ccccc3C)c2=O)CC1 [5-10]
2 | 126 nM | 15.8 nM | > 10000 nM | – | – | – | CCOC(=O)Cn1ccnc(NC2CCN(C/C(C)=C/c3ccccc3)CC2)c1=O [3-16]
3 | 25.1 nM | 20 nM | 501 nM | – | – | – | COC(=O)c1cccc(Cn2ccnc(NC3CCN(C/C(C)=C/c4ccccc4)CC3)c2=O)c1 [3-13]
4 | 251 nM | 25.1 nM | 3980 nM | – | – | – | C/C(=C\c1ccccc1)CN1CCC(Nc2nccn(-c3cccnc3)c2=O)CC1 [6-11]
5 | 79.4 nM | 100 nM | 1260 nM | – | – | – | C/C(=C\c1ccccc1)CN1CCC(Nc2nccn(CC(=O)c3cccc(-c4ccccc4)c3)c2=O)CC1 [5-33]
6 | 100 nM | 3.16 nM | 5010 nM | – | – | – | C=CCN1CCN(C(=O)Cn2ccnc(NC3CCN(C/C(C)=C/c4ccccc4)CC3)c2=O)CC1 [2-24]
7 | 3160 nM | 631 nM | > 10000 nM | – | – | – | COCCn1ccnc(NC2CCN(C/C=C/c3ccccc3)CC2)c1=O [16-9]
8 | – | – | – | 6.8 | 8.0 | 6.6 | C/C(=C\c1ccccc1)CN1CCC(Nc2nccn(-c3ccc(CN4C(=O)c5ccccc5C4=O)cc3)c2=O)CC1 [2-55]
9 | 63.1 nM | 15.8 nM | 316 nM | – | – | – | C/C(=C\c1ccccc1)CN1CCC(Nc2nccn(-c3cnc4ccccc4c3)c2=O)CC1 [6-16]
10 | 126 nM | 7.94 nM | 794 nM | – | – | – | C/C(=C\c1ccccc1)CN1CCC(Nc2nccn(CC(=O)N3CCN(c4ccccc4)CC3)c2=O)CC1 [2-26]
11 | 50.1 nM | 2 nM | 31.6 nM | – | – | – | C/C(=C\c1ccccc1)CN1CCC(Nc2nccn(C/C=C/CN3C(=O)c4ccccc4C3=O)c2=O)CC1 [2-52]
12 | 126 nM | 50.1 nM | 794 nM | – | – | – | C/C(=C\c1ccccc1)CN1CCC(Nc2nccn(Cc3cccc(C(F)(F)F)c3)c2=O)CC1 [5-22]
13 | 794 nM | 398 nM | 1260 nM | – | – | – | CC(C)(C)OC(=O)NCc1ccc(Cn2ccnc(NC3CCN(C/C=C/c4ccccc4)CC3)c2=O)cc1 [16-5]
14 | 79.4 nM | 12.6 nM | 5010 nM | – | – | – | C/C(=C\c1ccccc1)CN1CCC(Nc2nccn(-c3cccc(CO)c3)c2=O)CC1 [3-2]

Further lines, the compound ahead of its results:

Row | SMILES | IC50 (hα2A receptor) | IC50 (hα2C receptor) | IC50 (5HT-Transporter) | h-α2A pIC50 (hα2A receptor) | h-α2C pIC50 (hα2C receptor) | h-5HTT pIC50 (5HT-Transporter)
15 | C/C(=C\c1ccccc1)CN1CCC(Nc2nccn(CC(=O)NCc3ccc(F)cc3)c2=O)CC1 [1-55] | 63.1 nM | 1.26 nM | 316 nM | – | – | –
16 | C/C(=C\c1ccccc1)CN1CCC(Nc2nccn(CC(=O)N(C)CCN(C)C)c2=O)CC1 [1-108] | 50.1 nM | 1.58 nM | 6310 nM | – | – | –
17 | C/C(=C\c1ccccc1)CN1CCC(Nc2nccn(-c3ccc(C(=O)N4CCN(C)CC4)cc3)c2=O)CC1 [2-21] | 100 nM | 10 nM | 501 nM | – | – | –
18 | C/C(=C\c1ccccc1)CN1CCC(Nc2nccn(-c3ccc(NC(=O)Cc4ccccc4)cc3)c2=O)CC1 [1-81] | 200 nM | 25.1 nM | 200 nM | – | – | –
19 | CCCN(C)C(=O)Cn1ccnc(NC2CCN(C/C(C)=C/c3ccccc3)CC2)c1=O [1-19] | 126 nM | 10 nM | 1580 nM | – | – | –
20 | COC(=O)CCNCc1ccc(-n2ccnc(NC3CCN(C/C(C)=C/c4ccccc4)CC3)c2=O)cc1 [1-96] | – | – | – | 7.1 | 8.6 | 6.0
21 | C/C(=C\c1ccccc1)CN1CCC(Nc2nccn(CCCN(Cc3ccccc3)S(C)(=O)=O)c2=O)CC1 [1-169] | 200 nM | 10 nM | 316 nM | – | – | –
22 | C/C(=C\c1ccccc1)CN1CCC(Nc2nccn(CC(=O)N(C)c3ccccc3)c2=O)CC1 [1-41] | 100 nM | 3.16 nM | 398 nM | – | – | –
23 | C/C(=C\c1ccccc1)CN1CCC(Nc2nccn(-c3cccc(CN(C)Cc4ccccc4)c3)c2=O)CC1 [1-53] | – | – | – | 8.4 | 8.6 | 6.7
24 | C/C(=C\c1ccccc1)CN1CCC(Nc2nccn(Cc3ccc(CNS(=O)(=O)c4ccc(C(F)(F)F)cc4)cc3)c2=O)CC1 [1-163] | 158 nM | 39.8 nM | 794 nM | – | – | –
25 | COCCN(C)C(=O)c1ccc(-n2ccnc(NC3CCN(C/C(C)=C/c4ccccc4)CC3)c2=O)cc1 [1-27] | 31.6 nM | 2.51 nM | 501 nM | – | – | –
26 | C/C(=C\c1ccccc1)CN1CCC(Nc2nccn(CCCNc3ccccc3)c2=O)CC1 [1-39] | 79.4 nM | 7.94 nM | 200 nM | – | – | –
27 | C/C(=C\c1ccccc1)CN1CCC(Nc2nccn(Cc3ccc(CNC(=O)c4ccc(C#N)cc4)cc3)c2=O)CC1 [1-75] | 126 nM | 50.1 nM | 200 nM | – | – | –
28 | COC(=O)CN(C)Cc1cccc(-n2ccnc(NC3CCN(C/C(C)=C/c4ccccc4)CC3)c2=O)c1 [1-98] | – | – | – | 7.5 | 8.9 | 6.0
29 | C/C(=C\c1ccccc1)CN1CCC(Nc2nccn(-c3cccc(NC(=O)CC4CCCC4)c3)c2=O)CC1 [1-34] | 63.1 nM | 20 nM | 631 nM | – | – | –
30 | C/C(=C\c1ccccc1)CN1CCC(Nc2nccn(-c3cccc(NCc4ccccc4)c3)c2=O)CC1 [1-49] | 25.1 nM | 3.98 nM | 251 nM | – | – | –
31 | C/C(=C\c1ccccc1)CN1CCC(Nc2nccn(Cc3ccc(CNC(=O)C4CCCCC4)cc3)c2=O)CC1 [1-36] | 158 nM | 39.8 nM | 398 nM | – | – | –
32 | COC(=O)CN(C)C(=O)Cn1ccnc(NC2CCN(C/C(C)=C/c3ccccc3)CC2)c1=O [1-97] | 126 nM | 10 nM | 2510 nM | – | – | –
33 | COCC(=O)NCc1ccc(Cn2ccnc(NC3CCN(C/C(C)=C/c4ccccc4)CC3)c2=O)cc1 [1-93] | 158 nM | 50.1 nM | 1260 nM | – | – | –
34 | C/C(=C\c1ccccc1)CN1CCC(Nc2nccn(-c3cccc(CN4CCCCC4)c3)c2=O)CC1 [2-9] | 0.631 nM | 0.2 nM | 200 nM | – | – | –
